This data set in a line: In-vitro dissolution test in deionized water. The settings on record: room temperature. In kind it is physicochemical. As to the method:
The total drug dose is about 50 mg dissolved in 1 L of deionized water at the room temperature. In order to obtain the concentration versus time plot, a series of samples (3 mL) are withdrawn at predetermined time points, and the same amount of fresh media is added back to maintain a constant volume (1 L). These withdrawn samples are filtered by 0.22 μm MCE filters, and their concentrations are then determined with a UV spectrophotometer.

With `CC(C(=O)O)c1ccc(-c2ccccc2)c(F)c1` (centres unmarked) [Flurbiprofen crystal, Flurbiprofen], the “drug released in 6 hours” value was 9.5%.
In the case of `CCC(COC(=O)c1cc(OC)c(OC)c(OC)c1)(c1ccccc1)N(C)C` (centres unmarked) [Trimebutine crystal, Trimebutine] it was 1.18%.

(Values after patent publication US12458602B2, “Realizing the nano-amorphous state of materials inside nano-porous templates” (The Chinese University of Hong Kong, priority 2021, dated 2025).)
